Measurements as given in patent publication US11179326B2, “Short duration depot formulations” (Durect Corporation, priority 2002, dated 2021).
Counter-ions that a name gives are not always drawn.

Key:
[1] = reported value; cited from earlier work
[2] = Saturation concentration in de-ionized water; assay type: physicochemical; details: DI water
Experimental: Bupivacaine hydrochloride (Sigma-Aldrich Corporation, St. Louis, MO) was dissolved in de-ionized (DI) water at a concentration of 40 mg/ml (saturation). A calculated amount of sodium hydroxide (1 N solution) was added to the solution and the pH of the final mixtures was adjusted to 10 to precipitate the BP base. The precipitated product was filtered, and further washed with DI water for at least three times. The precipitated product was dried at approximately 40° C. in vacuum for 24 h.

Compound	solubility in water [1]	concentration in de-ionized water (saturation) [2]
CC(=O)OCC(COC(C)=O)OC(C)=O [triacetin]	7.17 grams in 100 ml of water	
CCCCN1CCCCC1C(=O)Nc1c(C)cccc1C (centres unmarked) [Bupivacaine hydrochloride]		40000 µg/mL
